33 compounds from ChEMBL document CHEMBL2331181, “Synthesis and in vitro cytotoxic activity evaluation of novel heterocycle bridged carbothioamide type isosteviol derivatives as antitumor agents” (Bioorg Med Chem Lett, 2013) can be followed below.

Type in all cases: functional, cell-based
One assay deals with HeLa. Kind of assay: Cytotoxicity against human HeLa cells after 48 hrs by MTT assay. In general terms: Tetrazolium dyes change colour on reduction, which living cells bring about.
The test system of a further assay is Raji. Kind of assay: Cytotoxicity against human Raji cells after 48 hrs by MTT assay.
In a further assay the test system is SGC-7901. Kind of assay: Cytotoxicity against human SGC7901 cells after 48 hrs by MTT assay. The following applies: SGC-7901, 48 h.
In a further assay the test system is A549. Kind of assay: Cytotoxicity against human A549 cells after 48 hrs by MTT assay. The conditions noted are these: A549, 48 h.

Each structure is given as a SMILES string.

Take `CCOC(=O)[C@]1(C)CCC[C@@]2(C)[C@@H]3CC[C@@]4(C)C[C@]3(CC[C@@H]21)c1cn(C(=S)Nc2cccc(C)c2)nc14`: the IC50 (in general, the concentration that inhibits the measured activity by half) is more than 50 µM in the assay with HeLa, 14.2 µM with Raji, 15.3 µM in the assay with SGC-7901 and 31.9 µM with A549.
Taken in the same sequence, the figures for `CCOC(=O)[C@]1(C)CCC[C@@]2(C)[C@@H]3CC[C@@]4(C)C[C@]3(CC[C@@H]21)c1cn(C(=S)Nc2ccc(C)cc2)nc14` were 40.5 µM, 12.5 µM, 14.7 µM and more than 50 µM.
The corresponding values for `CCOC(=O)[C@]1(C)CCC[C@@]2(C)[C@@H]3CC[C@@]4(C)C[C@]3(CC[C@@H]21)c1cn(C(=S)Nc2ccccc2OC)nc14` are more than 50 µM, 10.1 µM, more than 50 µM and more than 50 µM.
In the case of `CCOC(=O)[C@]1(C)CCC[C@@]2(C)[C@@H]3CC[C@@]4(C)C[C@]3(CC[C@@H]21)c1cn(C(=S)Nc2cccc(OC)c2)nc14`, the IC50 with HeLa is more than 50 µM; with Raji, 15.1 µM; in the assay on SGC-7901, 12.5 µM; in the assay on A549 it was 23.3 µM.
As to `CCOC(=O)[C@]1(C)CCC[C@@]2(C)[C@@H]3CC[C@@]4(C)C[C@]3(CC[C@@H]21)c1cn(C(=S)Nc2ccc(OC)cc2)nc14`, the IC50 in the assay with HeLa amounted to 13.9 µM; with Raji it was 6.51 µM; in the assay with SGC-7901, 9.65 µM; in the assay with A549 it was 17.7 µM.
On to `CCOC(=O)[C@]1(C)CCC[C@@]2(C)[C@@H]3CC[C@@]4(C)C[C@]3(CC[C@@H]21)c1cn(C(=S)Nc2ccccc2[N+](=O)[O-])nc14`, for which the IC50 in the assay with HeLa stood at 36.9 µM; in the assay on Raji it was 19.6 µM; with SGC-7901 it was 16.4 µM; with A549, 38.3 µM.
The corresponding values for `CCOC(=O)[C@]1(C)CCC[C@@]2(C)[C@@H]3CC[C@@]4(C)C[C@]3(CC[C@@H]21)c1cn(C(=S)Nc2cccc([N+](=O)[O-])c2)nc14` are more than 50 µM, 16.9 µM, 16 µM and more than 50 µM.
The corresponding values for `CCOC(=O)[C@]1(C)CCC[C@@]2(C)[C@@H]3CC[C@@]4(C)C[C@]3(CC[C@@H]21)c1cn(C(=S)Nc2ccc([N+](=O)[O-])cc2)nc14` are 36.2 µM, 17.9 µM, 34.2 µM and 35.3 µM.
In the case of `CCOC(=O)[C@]1(C)CCC[C@@]2(C)[C@@H]3CC[C@@]4(C)C[C@]3(CC[C@@H]21)c1cn(C(=S)Nc2c(C)cccc2C)nc14`, the IC50 in the assay with HeLa was 49 µM; in the assay with Raji, 12.1 µM; with SGC-7901, 14.8 µM; in the assay on A549 it was more than 50 µM.
The corresponding values for `CCOC(=O)[C@]1(C)CCC[C@@]2(C)[C@@H]3CC[C@@]4(C)C[C@]3(CC[C@@H]21)c1cn(C(=S)Nc2ccc(Cl)cc2Cl)nc14` are more than 50 µM, 24.5 µM, 20.1 µM and more than 50 µM.
Taken in the same sequence, the figures for `CCOC(=O)[C@]1(C)CCC[C@@]2(C)[C@@H]3CC[C@@]4(C)C[C@]3(CC[C@@H]21)[C@@H]1CON(C(=S)Nc2ccc(Br)cc2)[C@@H]14` were more than 50 µM, more than 50 µM, more than 50 µM and more than 50 µM.
On to `CCOC(=O)[C@]1(C)CCC[C@@]2(C)[C@@H]3CC[C@@]4(C)C[C@]3(CC[C@@H]21)[C@@H]1CON(C(=S)Nc2ccccc2C)[C@@H]14`, for which the IC50 in the assay on HeLa is more than 50 µM; in the assay with Raji, 24 µM; in the assay on SGC-7901, 38.3 µM; in the assay with A549, more than 50 µM.
As to `CCOC(=O)[C@]1(C)CCC[C@@]2(C)[C@@H]3CC[C@@]4(C)C[C@]3(CC[C@@H]21)[C@@H]1CON(C(=S)Nc2cccc(C)c2)[C@@H]14`, the IC50 in the assay on HeLa is more than 50 µM; in the assay on Raji it was 43.2 µM; with SGC-7901 it was 34.1 µM; with A549 it was more than 50 µM.
For the compound `CCOC(=O)[C@]1(C)CCC[C@@]2(C)[C@@H]3CC[C@@]4(C)C[C@]3(CC[C@@H]21)[C@@H]1CON(C(=S)Nc2ccc(C)cc2)[C@@H]14`, the IC50 in the assay on HeLa was more than 50 µM; in the assay on Raji, 27.6 µM; in the assay on SGC-7901, 37.2 µM; with A549, 45.8 µM.
Consider `CCOC(=O)[C@]1(C)CCC[C@@]2(C)[C@@H]3CC[C@@]4(C)C[C@]3(CC[C@@H]21)[C@@H]1CON(C(=S)Nc2ccccc2OC)[C@@H]14`, for which the IC50 with HeLa, in the assay with Raji, in the assay with SGC-7901 and in the assay with A549 was more than 50 µM each time.
Turning to `CCOC(=O)[C@]1(C)CCC[C@@]2(C)[C@@H]3CC[C@@]4(C)C[C@]3(CC[C@@H]21)[C@@H]1CON(C(=S)Nc2cccc(OC)c2)[C@@H]14`, the IC50 with HeLa, in the assay on Raji, in the assay on SGC-7901 and in the assay with A549 was more than 50 µM each time.
Turning to `CCOC(=O)[C@]1(C)CCC[C@@]2(C)[C@@H]3CC[C@@]4(C)C[C@]3(CC[C@@H]21)[C@@H]1CON(C(=S)Nc2ccc(OC)cc2)[C@@H]14`, the half-inhibitory concentration (IC50) in the assay with HeLa was more than 50 µM; in the assay on Raji, 37.4 µM; in the assay on SGC-7901, more than 50 µM; in the assay on A549 it was more than 50 µM.
Regarding `CCOC(=O)[C@]1(C)CCC[C@@]2(C)[C@@H]3CC[C@@]4(C)C[C@]3(CC[C@@H]21)[C@@H]1CON(C(=S)Nc2ccccc2[N+](=O)[O-])[C@@H]14`, the IC50 in the assay on HeLa was more than 50 µM; with Raji, 35.4 µM; in the assay with SGC-7901 it was more than 50 µM; in the assay on A549 it was more than 50 µM.
Take `CCOC(=O)[C@]1(C)CCC[C@@]2(C)[C@@H]3CC[C@@]4(C)C[C@]3(CC[C@@H]21)[C@@H]1CON(C(=S)Nc2cccc([N+](=O)[O-])c2)[C@@H]14`: the IC50 in the assay on HeLa, in the assay with Raji, with SGC-7901 and in the assay on A549 was more than 50 µM throughout.
For `CCOC(=O)[C@]1(C)CCC[C@@]2(C)[C@@H]3CC[C@@]4(C)C[C@]3(CC[C@@H]21)[C@@H]1CON(C(=S)Nc2ccc([N+](=O)[O-])cc2)[C@@H]14`, the IC50 was more than 50 µM in the assay on HeLa, 23.5 µM in the assay on Raji, 49.8 µM in the assay on SGC-7901 and more than 50 µM in the assay on A549.
Take `CCOC(=O)[C@]1(C)CCC[C@@]2(C)[C@@H]3CC[C@@]4(C)C[C@]3(CC[C@@H]21)[C@@H]1CON(C(=S)Nc2c(C)cccc2C)[C@@H]14`: the IC50 in the assay on HeLa was more than 50 µM; with Raji, 19.7 µM; in the assay with SGC-7901, 27.4 µM; in the assay on A549 it was 41.6 µM.
Taken in the same sequence, the figures for `CCOC(=O)[C@]1(C)CCC[C@@]2(C)[C@@H]3CC[C@@]4(C)C[C@]3(CC[C@@H]21)[C@@H]1CON(C(=S)Nc2ccc(Cl)cc2Cl)[C@@H]14` were more than 50 µM, 21.9 µM, 25.1 µM and 43.2 µM.
On to `CCOC(=O)[C@]1(C)CCC[C@@]2(C)[C@@H]3CC[C@@]4(C)C[C@]3(CC[C@@H]21)c1cn(C(=S)Nc2ccccc2)nc14`, for which the IC50 with HeLa stood at 27.1 µM; in the assay on Raji it was 18.9 µM; in the assay with SGC-7901 it was 15.7 µM; in the assay with A549, 17.6 µM.
Taken in the same sequence, the figures for `CCOC(=O)[C@]1(C)CCC[C@@]2(C)[C@@H]3CC[C@@]4(C)C[C@]3(CC[C@@H]21)c1cn(C(=S)Nc2ccccc2F)nc14` were 47.5 µM, 11.1 µM, 20.7 µM and 18.8 µM.
Regarding `CCOC(=O)[C@]1(C)CCC[C@@]2(C)[C@@H]3CC[C@@]4(C)C[C@]3(CC[C@@H]21)c1cn(C(=S)Nc2cccc(F)c2)nc14`, the IC50 in the assay on HeLa is more than 50 µM; in the assay on Raji, 23.7 µM; with SGC-7901, 19.5 µM; in the assay on A549, 33.8 µM.
The corresponding values for `CCOC(=O)[C@]1(C)CCC[C@@]2(C)[C@@H]3CC[C@@]4(C)C[C@]3(CC[C@@H]21)c1cn(C(=S)Nc2ccc(F)cc2)nc14` are 13.3 µM, 17.7 µM, 18.4 µM and 33.5 µM.
Taken in the same sequence, the figures for `CCOC(=O)[C@]1(C)CCC[C@@]2(C)[C@@H]3CC[C@@]4(C)C[C@]3(CC[C@@H]21)c1cn(C(=S)Nc2ccccc2Cl)nc14` were more than 50 µM, 21.1 µM, 26.2 µM and 26.6 µM.
The corresponding values for `CCOC(=O)[C@]1(C)CCC[C@@]2(C)[C@@H]3CC[C@@]4(C)C[C@]3(CC[C@@H]21)c1cn(C(=S)Nc2cccc(Cl)c2)nc14` are more than 50 µM, 16 µM, 16.9 µM and 39.1 µM.
In the case of `CCOC(=O)[C@]1(C)CCC[C@@]2(C)[C@@H]3CC[C@@]4(C)C[C@]3(CC[C@@H]21)c1cn(C(=S)Nc2ccc(Cl)cc2)nc14`, the IC50 in the assay on HeLa came to 39 µM; in the assay with Raji, 13 µM; with SGC-7901, 21.7 µM; with A549, 20 µM.
The corresponding values for `CCOC(=O)[C@]1(C)CCC[C@@]2(C)[C@@H]3CC[C@@]4(C)C[C@]3(CC[C@@H]21)c1cn(C(=S)Nc2ccccc2Br)nc14` are 43.4 µM, 19.6 µM, 17.2 µM and 38.1 µM.
Taken in the same sequence, the figures for `CCOC(=O)[C@]1(C)CCC[C@@]2(C)[C@@H]3CC[C@@]4(C)C[C@]3(CC[C@@H]21)c1cn(C(=S)Nc2cccc(Br)c2)nc14` were more than 50 µM, 15.8 µM, 19.6 µM and 24.8 µM.
The corresponding values for `CCOC(=O)[C@]1(C)CCC[C@@]2(C)[C@@H]3CC[C@@]4(C)C[C@]3(CC[C@@H]21)c1cn(C(=S)Nc2ccc(Br)cc2)nc14` are more than 50 µM, 13.9 µM, 7.06 µM and 24.5 µM.
With `CCOC(=O)[C@]1(C)CCC[C@@]2(C)[C@@H]3CC[C@@]4(C)C[C@]3(CC[C@@H]21)c1cn(C(=S)Nc2ccccc2C)nc14`, the IC50 with HeLa was more than 50 µM; in the assay with Raji it was 15.2 µM; in the assay on SGC-7901 it was 38.1 µM; with A549 it was 32.1 µM.
